We go through three compounds from US20200171165A1, “ENHANCED TARGETED DELIVERY OF THERAPEUTIC AGENTS” (Proteogenomics Research Institute for Systems Medicine, priority 2018, published 2020).

Test [1] concerns HER2/neu spontaneous mammary tumors. Put plainly: HER2/neu transgenic spontaneous mammary tumor model: survival and toxicity. The class given is in vivo, mouse. The settings on record: single IV dose 5 mg/kg. The source says: We also performed a pilot efficacy study of hAnnA1-CMD-Pt(II) in a genetically engineered mouse HER2/neu model that develops spontaneous mammary tumors (GuyWebster et al., 1992; Reilly et al., 2000).

Test [2] relates to mammary tumors (N202). Put plainly: IVM ectopic-orthotopic (EO) mammary tumor model, spheroids in dorsal skin window chambers: tumor growth.
Experimental: We used the classic IVM tumor model with modifications (Asaishi et al., 1981; Endrich et al., 1980; Vajkoczy et al., 2000). The mice, usually athymic nude mice (25-30 g body weight), were anesthetized (7.3 mg ketamine hydrochloride and 2.3 mg xylazine per 100 g body weight, intraperitoneal injection) and placed on a heating pad. A titanium frame was placed onto the dorsal skinfold of mice to sandwich the extended double layer of skin. A 15 mm diameter full-thickness circular layer of skin was then excised. The superficial fascia on top of the remaining skin was carefully removed to expose the underlying muscle and subcutaneous tissue which was then covered with another titanium frame with a glass coverslip to form the window chamber. After a recovery period of 1-2 days, tumor spheroids were implanted.
Tumor spheroids were formed by plating 50,000 cells onto 1% agar-coated 96-well non-tissue culture treated flat bottom dishes (20 μl cells in 100 μl medium) and centrifuging 4 times at 2000 rpm for 15 min, rotating the dish after every centrifugation. The cells were incubated an additional 3-7 days (depending on cell type) at 37° C. in 5% CO2 in air to form tight spheroids. BT-474 cells required 500,000 cells in the presence of Matrigel (BD Bioscience, San Diego) (1:1 cell volume dilution) to form spheroids in culture. […]
Tumors were imaged using intravital fluorescence microscopy, as described (Borgstrom et al., 2013; Oh et al., 2007; Oh et al., 2014). Tumor growth was analyzed off-line from the recorded, digital, grayscale 0-to-256 images using Image-Pro Plus (Media Cybernetics, Bethesda, Md.). Tumor growth was determined in 2 ways, by measuring the area with fluorescence signal from the GFP or CFP expressing tumor cells or by quantifying the cumulative fluorescence signal for the tumor over time. Tumor area is measured by counting the number of pixels with a grayscale intensity above 75, thereby making it easier to reliably follow irregularly shaped tumors. The cumulative tumor fluorescence signal was measured by signal summation of all pixels over 75. […]

`N.N.[Cl][Pt][Cl]` [cisplatin]: in test [1], the “Mean extension in survival vs untreated controls” value turned out to be 30 days. As for `CC(=O)O[C@@]12CO[C@@H]1C[C@H](O)[C@@]1(C)C(=O)[C@H](O)C3=C(C)[C@@H](OC(=O)[C@H](O)[C@@H](NC(=O)OC(C)(C)C)c4ccccc4)C[C@@](O)([C@@H](OC(=O)c4ccccc4)[C@H]21)C3(C)C` [docetaxel], the Tumor response entry in test [2] (unconjugated drug 5 mg/kg) was “produced less benefit”. For the compound `COc1cccc2c1C(=O)c1c(O)c3c(c(O)c1C2=O)C[C@@](O)(C(=O)CO)C[C@@H]3O[C@H]1C[C@H](N)[C@H](O)[C@H](C)O1` [free doxorubicin, doxorubicin], the entries for the “Tumor response (IVM)” value in test [2] (free drug 1 mg/kg) and in test [2] (free drug 5 mg/kg (near MTD)) were “no effect” and “slowed tumor growth modestly”, respectively.
